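Values below derive from 48-hour exposures of cells grown in 96-well plates, with endpoints linearly interpolated between the two concentrations bracketing the appropriate inhibition level. The concentration for 50% growth inhibition is given as GI50.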 The source made the active and inactive calls. Cut-off read from the data, not from the text of the source: active = GI50 up to about 1.1 µM and inactive = higher.
How the values were obtained:
Assay in all cases: NCI-60 cell line screen, 48 h
CCRF-CEM = tested on: CCRF-CEM
T47D = tested on: T47D
UACC-62 = tested on: UACC-62
NCI-H226 = tested on: NCI-H226
KM12 = tested on: KM12
HCT-116 = tested on: HCT-116
PC-3 = tested on: PC-3
TK-10 = tested on: TK-10
RXF 393 = tested on: RXF 393
786-0 = tested on: 786-0
MDA-MB-231 = tested on: MDA-MB-231
SF-295 = tested on: SF-295
NCI/ADR-RES = tested on: NCI/ADR-RES
SK-MEL-2 = tested on: SK-MEL-2
SW-620 = tested on: SW-620
OVCAR-3 = tested on: OVCAR-3
CAKI-1 = tested on: CAKI-1
SR = tested on: SR
BT-549 = tested on: BT-549

SMILES	GI50 (CCRF-CEM)	GI50 (T47D)	GI50 (UACC-62)	GI50 (NCI-H226)	GI50 (KM12)	GI50 (HCT-116)	GI50 (PC-3)	GI50 (TK-10)	GI50 (RXF 393)	GI50 (786-0)	GI50 (MDA-MB-231)	GI50 (SF-295)	GI50 (NCI/ADR-RES)	GI50 (SK-MEL-2)	GI50 (SW-620)	GI50 (OVCAR-3)	GI50 (CAKI-1)	GI50 (SR)	GI50 (BT-549)
O=[N+]([O-])c1ccc2c(c1)=[N+]([O-])C1(CCCCC1)[N+]=2[O-]	3.36 µM (inactive)	25.5 µM (inactive)	10.4 µM (inactive)	21.1 µM (inactive)	20.5 µM (inactive)	17.1 µM (inactive)	17.5 µM (inactive)	13.3 µM (inactive)	18.5 µM (inactive)	11.5 µM (inactive)	18.2 µM (inactive)	19.8 µM (inactive)	26.2 µM (inactive)	22.1 µM (inactive)	15.9 µM (inactive)	15.6 µM (inactive)	20.4 µM (inactive)	6.43 µM (inactive)	–
Cc1cc(Br)cc(C)c1NC(=O)C(=O)C1C(=O)C(CC2C(=O)c3ccccc3C2=O)C(=O)CC1(C)C (configuration not stated)	41.7 µM (inactive)	–	90.2 µM (inactive)	67.5 µM (inactive)	> 100 µM (inactive)	83.2 µM (inactive)	60.7 µM (inactive)	> 100 µM (inactive)	3.66 µM (inactive)	> 100 µM (inactive)	55 µM (inactive)	> 100 µM (inactive)	86.5 µM (inactive)	> 100 µM (inactive)	> 100 µM (inactive)	> 100 µM (inactive)	> 100 µM (inactive)	–	> 100 µM (inactive)
COC(CN(C=O)[C@@H](c1ccc(Cl)cc1)c1cc2ccccc2o1)OC	21.1 µM (inactive)	11.6 µM (inactive)	14.8 µM (inactive)	18.1 µM (inactive)	11.1 µM (inactive)	15.8 µM (inactive)	17.3 µM (inactive)	15.5 µM (inactive)	14.6 µM (inactive)	23.6 µM (inactive)	18.5 µM (inactive)	16.9 µM (inactive)	18.3 µM (inactive)	16.7 µM (inactive)	16.6 µM (inactive)	12.7 µM (inactive)	15.8 µM (inactive)	–	–
CC(=O)Oc1cc2c[n+](C)c3c4cc(OC(C)=O)c(OC(C)=O)cc4ccc3c2cc1OC(C)=O	–	1.87 µM (inactive)	3.97 µM (inactive)	1.54 µM (inactive)	5.46 µM (inactive)	2.3 µM (inactive)	4.07 µM (inactive)	> 100 µM (inactive)	0.168 µM (active)	1.59 µM (inactive)	–	4.72 µM (inactive)	2.54 µM (inactive)	–	3.31 µM (inactive)	2.24 µM (inactive)	4.48 µM (inactive)	2.22 µM (inactive)	–
CN(C)c1nc(NN)c2c(-c3ccccc3)c(-c3ccccc3)oc2n1	52.5 µM (inactive)	> 100 µM (inactive)	44.8 µM (inactive)	> 100 µM (inactive)	> 100 µM (inactive)	> 100 µM (inactive)	–	> 100 µM (inactive)	> 100 µM (inactive)	> 100 µM (inactive)	> 100 µM (inactive)	> 100 µM (inactive)	> 100 µM (inactive)	–	> 100 µM (inactive)	–	> 100 µM (inactive)	72.3 µM (inactive)	–
COc1ccc(N2C(=O)CC(=O)N(C(=O)COc3ccc(OCC(=O)N4C(=O)CC(=O)N(c5ccc(OC)cc5)C4=S)cc3)C2=S)cc1	–	–	29.2 µM (inactive)	30.5 µM (inactive)	15.6 µM (inactive)	15.7 µM (inactive)	41 µM (inactive)	44.3 µM (inactive)	23.7 µM (inactive)	36.5 µM (inactive)	30.3 µM (inactive)	36.8 µM (inactive)	66.4 µM (inactive)	23.9 µM (inactive)	40.1 µM (inactive)	–	0.718 µM (active)	–	50.1 µM (inactive)
CCC(=O)COc1ccc(NC(NC(=O)C(C(F)(F)F)C(F)(F)F)(C(F)(F)F)C(F)(F)F)cc1	22.3 µM (inactive)	20.6 µM (inactive)	–	19.2 µM (inactive)	36.2 µM (inactive)	20.6 µM (inactive)	48.1 µM (inactive)	37 µM (inactive)	18.6 µM (inactive)	23.1 µM (inactive)	26.5 µM (inactive)	66.4 µM (inactive)	18.9 µM (inactive)	30.3 µM (inactive)	41.3 µM (inactive)	94 µM (inactive)	36.1 µM (inactive)	12.2 µM (inactive)	–
Cc1ccc(/C=N/Nc2ncccn2)s1	> 100 µM (inactive)	> 100 µM (inactive)	> 100 µM (inactive)	> 100 µM (inactive)	> 100 µM (inactive)	> 100 µM (inactive)	> 100 µM (inactive)	> 100 µM (inactive)	> 100 µM (inactive)	> 100 µM (inactive)	> 100 µM (inactive)	> 100 µM (inactive)	> 100 µM (inactive)	> 100 µM (inactive)	> 100 µM (inactive)	> 100 µM (inactive)	> 100 µM (inactive)	–	–
CCOP(C)(=O)C(Nc1ccc(F)cc1)c1ccc(F)cc1 (configuration not stated)	> 100 µM (inactive)	> 100 µM (inactive)	> 100 µM (inactive)	> 100 µM (inactive)	> 100 µM (inactive)	> 100 µM (inactive)	> 100 µM (inactive)	> 100 µM (inactive)	> 100 µM (inactive)	> 100 µM (inactive)	> 100 µM (inactive)	> 100 µM (inactive)	> 100 µM (inactive)	> 100 µM (inactive)	> 100 µM (inactive)	> 100 µM (inactive)	> 100 µM (inactive)	> 100 µM (inactive)	–
C/C(=C\c1ccccn1)c1ccccn1	–	–	> 100 µM (inactive)	–	> 100 µM (inactive)	> 100 µM (inactive)	> 100 µM (inactive)	> 100 µM (inactive)	> 100 µM (inactive)	> 100 µM (inactive)	> 100 µM (inactive)	> 100 µM (inactive)	> 100 µM (inactive)	> 100 µM (inactive)	–	> 100 µM (inactive)	> 100 µM (inactive)	–	> 100 µM (inactive)
FC1=C2C3CCC(C3)C2C1(F)F (configuration not stated)	47.6 µM (inactive)	> 100 µM (inactive)	> 100 µM (inactive)	> 100 µM (inactive)	> 100 µM (inactive)	> 100 µM (inactive)	> 100 µM (inactive)	> 100 µM (inactive)	> 100 µM (inactive)	> 100 µM (inactive)	> 100 µM (inactive)	> 100 µM (inactive)	> 100 µM (inactive)	> 100 µM (inactive)	> 100 µM (inactive)	> 100 µM (inactive)	> 100 µM (inactive)	–	–
CC(C)=C/C=C1/CS(=O)(=O)C=C1C	> 100 µM (inactive)	> 100 µM (inactive)	> 100 µM (inactive)	> 100 µM (inactive)	> 100 µM (inactive)	> 100 µM (inactive)	> 100 µM (inactive)	> 100 µM (inactive)	> 100 µM (inactive)	> 100 µM (inactive)	> 100 µM (inactive)	> 100 µM (inactive)	> 100 µM (inactive)	> 100 µM (inactive)	> 100 µM (inactive)	> 100 µM (inactive)	> 100 µM (inactive)	–	–

Reference: ChEMBL document CHEMBL1201862, “PubChem BioAssay data set” (2004)
